System: LhCE
Assay: UV-Vis Michaelis-Menten hydrolysis assay
Assay type: biochemical, Lactobacillus helveticus
Details: 50 mM HEPES pH 8, 21 °C, 10 nM enzyme

Work on `O=C(/C=C/c1ccc(O)c(O)c1)O[C@@H]1C[C@](O)(C(=O)O)C[C@@H](O)[C@H]1O` [chlorogenic acid] yielded a Km of 147 ± 41 µM.
`CCOC(=O)/C=C/c1ccc(O)c(OC)c1` [ethyl ferulate] gave a Km (substrate stock in 5% ethanol) of 386 ± 46 µM.
